The record followed here is patent US12037324B2, “Biarylmethyl heterocycles” (Université de Montréal, priority 2016, dated 2024).

The target in test [1] is T1, hAT1R (Homo sapiens, UniProt P30556).
T1 sequence (P30556 1-359): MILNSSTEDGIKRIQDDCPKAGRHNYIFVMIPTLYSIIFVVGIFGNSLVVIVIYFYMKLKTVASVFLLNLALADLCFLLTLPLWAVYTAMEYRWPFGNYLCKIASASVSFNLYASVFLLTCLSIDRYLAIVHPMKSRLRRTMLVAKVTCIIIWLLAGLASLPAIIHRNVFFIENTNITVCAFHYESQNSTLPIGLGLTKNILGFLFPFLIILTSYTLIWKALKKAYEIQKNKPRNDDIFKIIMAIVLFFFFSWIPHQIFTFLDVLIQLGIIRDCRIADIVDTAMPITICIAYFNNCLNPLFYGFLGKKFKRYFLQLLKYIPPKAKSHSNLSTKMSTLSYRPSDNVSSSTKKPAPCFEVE
The test can be described thus: cell-based. To be noted: agonist mode; for EC50: read-out: BRET P63 EC50. For orientation: Bioluminescence resonance energy transfer reports proximity on the nanometre scale.

Test [2] deals with T2, AGTR1 (Homo sapiens, UniProt P30556).
T2 construct: host or cells: Pathunter CHO-K1 AGTR1 β-arrestin cell line (CHO-K1)
T2 sequence (P30556 1-359): T1 sequence (P30556 1-359)
The test can be described thus: DiscoveRx β-arrestin2 recruitment assay (enzyme complementation, Pathunter CHO-K1 AGTR1 β-arrestin cell line). The format is cell-based. Particulars: DiscoveRx β-arrestin2 recruitment; for DiscoveRx β-arrestin2 Ymax (%): maximal response. The gist of the method: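 Chemiluminescent enzyme-complementation read-out of β-arrestin2 recruitment to AGTR1 in engineered CHO-K1 cells after 90 min compound exposure at 37° C. Values are 4-parameter logistic EC50s in agonist mode, IC50s in antagonist mode, with efficacy relative to the maximal All response.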

The target of test [3] is T1, hAT1R. Put plainly: BRET Gq biosensor assay, agonist response, HEK293 cells. The format is cell-based. To be noted: section of the 42nd table directly before the BRET P63 section. The gist of the method: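 Agonist EC50 derived from a 4-parameter fit of BRET2 ratio (GFP 515 nm/Rluc 410 nm), scaled between unstimulated control and maximal AngII response. Readings taken 5 min after compound addition at room temperature, with 2 μM coelenterazine, in HEK293 cells expressing hAT1R, Gαq-Rluc, Gβ1 and GFP-Gγ1 (transfected two days earlier).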

Test [4] deals with T1, hAT1R. The test can be described thus: cell-based. To be noted: section of the 42nd table ending at r951, example numbering restarts after the DiscoveRx section; read-out: β-arrestin2 EC50.

For orientation: EC50 means the concentration at which the effect is half-maximal. As to `CCOc1nc2cccc(C(=O)O)c2n1Cc1ccc(-c2cc(N3CCC[C@H](C)C3)ccc2-c2nn[nH]n2)cc1` [Example 324], the EC50 in test [1] is over 10 µM; in test [2], 0.0174 µM; in test [3] it was 0.0423 µM; in test [4] it was 0.0632 µM. Further, the “DiscoveRx β-arrestin2 Ymax (%)” value in test [2] amounted to 55.2%.

Consider `CCc1nc2c(C)cc(C)nc2n1Cc1ccc(-c2cc(-c3cccc(C)c3)ccc2-c2nn[nH]n2)cc1F` [Example 266], for which the “BRET P63 Ymax” value in test [1] turned out to be 19.1%. For the same compound, the EC50 in test [1] came to 0.0057 µM; in test [2] it was 0.0643 µM; in test [3], 0.0261 µM; in test [4], 0.0057 µM. Further, the “DiscoveRx β-arrestin2 Ymax (%)” value in test [2] is 75.8%.

As for `CCCc1nc(CC)c(C(=O)O)n1Cc1ccc(-c2cc(-c3ccccc3)ccc2-c2nn[nH]n2)c(C)c1` [Example 425], the EC50 in test [1] is over 10 µM; in test [2], 0.0273 µM; in test [3], 0.105 µM; in test [4], 0.0474 µM. Moreover, the “DiscoveRx β-arrestin2 Ymax (%)” value in test [2] came out at 54.2%.

As to `CCCCc1nc(Cl)c(C(=O)O)n1Cc1ccc(-c2cc(Oc3ccccn3)ccc2-c2nn[nH]n2)cc1` [Example 427, 2-Butyl-4-chloro-1-((5′-(pyridin-2-yloxy)-2′-(2H-tetrazol-5-yl)-[1,1′-biphenyl]-4-yl)methyl)-1H-imidazole-5-carboxylic acid], the EC50 is over 10 µM in test [1], 0.0899 µM in test [2], 0.575 µM in test [3] and over 10 µM in test [4]. The “DiscoveRx β-arrestin2 Ymax (%)” value in test [2] is 19.6%.

In the case of `CCOc1nc2cccc(C(=O)O)c2n1Cc1ccc(-c2cc(-c3cc(OC)ccn3)ccc2-c2nn[nH]n2)cc1` [Example 310, 2-ethoxy-1-((5′-(4-methoxypyridin-2-yl)-2′-(2H-tetrazol-5-yl)-[1,1′-biphenyl]-4-yl)methyl)-1H-benzo[d]imidazole-7-carboxylic acid], the “BRET P63 Ymax” value in test [1] was determined as 29.1%. Further, the EC50 in test [1] turned out to be 0.0072 µM; in test [2] it was 0.0149 µM; in test [3], 0.0353 µM; in test [4], 0.0109 µM. Also, in test [2], the “DiscoveRx β-arrestin2 Ymax (%)” value was 51.4%.

Take `CCOc1nc2cccc(C(=O)O)c2n1Cc1ccc(-c2cc(Oc3ccccc3)ccc2-c2nn[nH]n2)cc1` [Example 330, 2-Ethoxy-1-((5′-phenoxy-2′-(2H-tetrazol-5-yl)-[1,1′-biphenyl]-4-yl)methyl)-1H-benzo[d]imidazole-7-carboxylic acid]: the EC50 in test [1] is over 10 µM; in test [2] it was 0.0132 µM; in test [3], 0.0401 µM; in test [4], 0.0167 µM. For the same compound, the “DiscoveRx β-arrestin2 Ymax (%)” value in test [2] came to 57.8%.

Take `CCOc1nc2cccc(C(=O)O)c2n1Cc1ccc(-c2cc(Oc3ccc(F)cc3)ccc2-c2nn[nH]n2)cc1` [Example 336]: the EC50 in test [1] is over 10 µM; in test [2], 0.0164 µM; in test [3], 0.0472 µM; in test [4], 0.0124 µM. The “DiscoveRx β-arrestin2 Ymax (%)” value in test [2] turned out to be 61.4%.

`CCOc1nc2cccc(C(=O)O)c2n1Cc1ccc(-c2cc(-c3cc(C)ccn3)ccc2-c2noc(=O)[nH]2)cc1` [Example 299, 2-ethoxy-1-((5′-(4-methylpyridin-2-yl)-2′-(5-oxo-4,5-dihydro-1,2,4-oxadiazol-3-yl)-[1,1′-biphenyl]-4-yl)methyl)-1H-benzo[d]imidazole-7-carboxylic acid]: the “BRET P63 Ymax” value in test [1] is listed as 31.7%. Besides, the EC50 in test [1] worked out at 0.0049 µM; in test [2], 0.0077 µM; in test [3], 0.0213 µM; in test [4], 0.0047 µM. Further, the “DiscoveRx β-arrestin2 Ymax (%)” value in test [2] was found to be 83.0%.

`CCOc1nc2cccc(C(=O)O)c2n1Cc1ccc(-c2cc(-n3ccc(C(F)(F)F)n3)ccc2-c2nn[nH]n2)cc1` [Example 338]: the EC50 was over 10 µM in test [1], 0.0178 µM in test [2], 0.0308 µM in test [3] and 0.0163 µM in test [4]. Moreover, the “DiscoveRx β-arrestin2 Ymax (%)” value in test [2] stood at 68.9%.

On to `CCOc1nc2cccc(C(=O)O)c2n1Cc1ccc(-c2cc(-c3cc(C)ccn3)ccc2-c2nn[nH]n2)cc1` [Example 309, 2-ethoxy-1-((5′-(4-methylpyridin-2-yl)-2′-(2H-tetrazol-5-yl)-[1,1′-biphenyl]-4-yl)methyl)-1H-benzo[d]imidazole-7-carboxylic acid], for which the “BRET P63 Ymax” value in test [1] was 28.6%. Moreover, the EC50 in test [1] was determined as 0.0038 µM; in test [2], 0.0041 µM; in test [3] it was 0.0079 µM; in test [4], 0.0065 µM. For the same compound, in test [2], the “DiscoveRx β-arrestin2 Ymax (%)” value is 80.4%.

In the case of `CCCCc1nc(Cl)c(C(=O)O)n1Cc1ccc(-c2cc(N3CCC[C@@H](C)C3)ccc2-c2nn[nH]n2)cc1` [Example 419, (R)-2-butyl-4-chloro-1-((5′-(3-methylpiperidin-1-yl)-2′-(2H-tetrazol-5-yl)-[1,1′-biphenyl]-4-yl)methyl)-1H-imidazole-5-carboxylic acid], the EC50 is over 10 µM in test [1], 0.121 µM in test [2], 0.228 µM in test [3] and 0.0852 µM in test [4]. Also, the “DiscoveRx β-arrestin2 Ymax (%)” value in test [2] stood at 33.9%.

With `CCCc1nc(CC)c(C(N)=O)n1Cc1ccc(-c2cc(-c3ccccc3)ccc2-c2nn[nH]n2)c(C)c1` [Example 426], the EC50 in test [1] was over 10 µM; in test [2], 0.0342 µM; in test [3], 0.086 µM; in test [4], 0.0496 µM. Further, the “DiscoveRx β-arrestin2 Ymax (%)” value in test [2] was 52.5%.

For the compound `CCOc1nc2cccc(C(=O)O)c2n1Cc1ccc(-c2cc(-n3cnc4ccccc43)ccc2-c2nn[nH]n2)cc1` [Example 339], the EC50 in test [1] was over 10 µM; in test [2], 0.0106 µM; in test [3] it was 0.0521 µM; in test [4] it was 0.0128 µM. Also, in test [2], the “DiscoveRx β-arrestin2 Ymax (%)” value worked out at 58.0%.

For the compound `CCOc1nc2cccc(C(=O)O)c2n1Cc1ccc(-c2cc(-c3cc(OC(F)F)ccn3)ccc2-c2noc(=O)[nH]2)cc1` [Example 302], the “BRET P63 Ymax” value in test [1] is reported as 25.2%. Moreover, the EC50 in test [1] was determined as 0.0102 µM; in test [2], 0.0102 µM; in test [3], 0.0473 µM; in test [4] it was 0.0149 µM. Moreover, in test [2], the “DiscoveRx β-arrestin2 Ymax (%)” value is given as 61.1%.

Consider `CCOc1nc2cccc(C(=O)O)c2n1Cc1ccc(-c2cc(-c3cnn(C(F)F)c3)ccc2-c2nn[nH]n2)cc1` [Example 327, 1-((5′-(1-(difluoromethyl)-1H-pyrazol-4-yl)-2′-(2H-tetrazol-5-yl)-[1,1′-biphenyl]-4-yl)methyl)-2-ethoxy-1H-benzo[d]imidazole-7-carboxylic acid], for which the “BRET P63 Ymax” value in test [1] turned out to be 10.8%. For the same compound, the EC50 was determined as 0.0269 µM in test [1], 0.0094 µM in test [2], 0.0221 µM in test [3] and 0.033 µM in test [4]. In addition, in test [2], the “DiscoveRx β-arrestin2 Ymax (%)” value is 64.2%.

Regarding `CCOc1nc2cccc(C(=O)O)c2n1Cc1ccc(-c2cc(Oc3cccnc3)ccc2-c2nn[nH]n2)cc1` [Example 333], the EC50 in test [1] is over 10 µM; in test [2], 0.01 µM; in test [3], 0.0178 µM; in test [4], 0.0113 µM. In addition, in test [2], the “DiscoveRx β-arrestin2 Ymax (%)” value was determined as 67.8%.

For `CCOc1nc2cccc(C(=O)O)c2n1Cc1ccc(-c2cc(-c3cc(N(C)C)ccn3)ccc2-c2noc(=O)[nH]2)cc1` [Example 305], the “BRET P63 Ymax” value in test [1] is 24.3%. Also, the EC50 was 0.067 µM in test [1], 0.0255 µM in test [2], 0.0829 µM in test [3] and 0.0903 µM in test [4]. In addition, the “DiscoveRx β-arrestin2 Ymax (%)” value in test [2] came to 69.3%.

In the case of `CCc1nc2c(C)cc(C)nc2n1Cc1ccc(-c2cc(-c3ccccc3)ccc2-c2nn[nH]n2)cc1F` [Example 264, 2-ethyl-3-((3-fluoro-6′-(2H-tetrazol-5-yl)-[1,1′:3′,1″-terphenyl]-4-yl)methyl)-5,7-dimethyl-3H-imidazo[4,5-b]pyridine], the “BRET P63 Ymax” value in test [1] was determined as 15.7%. The EC50 is 0.0074 µM in test [1], 0.0192 µM in test [2], 0.0428 µM in test [3] and 0.0129 µM in test [4]. Further, the “DiscoveRx β-arrestin2 Ymax (%)” value in test [2] came to 52.9%.

Turning to `CCCCc1nc(Cl)c(C(=O)O)n1Cc1ccc(-c2cc(N3CCC[C@H](C)C3)ccc2-c2nn[nH]n2)cc1` [Example 418, (S)-2-butyl-4-chloro-1-((5′-(3-methylpiperidin-1-yl)-2′-(2H-tetrazol-5-yl)-[1,1′-biphenyl]-4-yl)methyl)-1H-imidazole-5-carboxylic acid], the EC50 was over 10 µM in test [1], 0.0678 µM in test [2], 0.479 µM in test [3] and 0.154 µM in test [4]. Further, the “DiscoveRx β-arrestin2 Ymax (%)” value in test [2] turned out to be 31.2%.
